From the NIST ThermoML archive (doi:10.1021/acs.jced.6b00149)
± gives the expanded uncertainty stated by the source.

assay: refractive index (Na D-line) (dimensionless); settings: 298.15 K; 101.33 kPa; Liquid; Standard Abbe refractometry

Row | SMILES | refractive index
1 | O=Cc1ccco1 [2-furaldehyde] | 1.52263 ± 0.001
2 | COC(C)(C)C [2-methoxy-2-methylpropane] | 1.36594 ± 0.001
3 | CC(C)=O [acetone] | 1.35553 ± 0.001
4 | O [water] | 1.33249 ± 0.001
